Measured values: patent US20090018150A1, “5-Ht2b Receptor Antagonists” (ASTERAND UK LIMITED, priority 2003, published 2009)
Counter-ions that a name gives are not always drawn.

What was measured:
[1] = biological target: T1, human cloned 5-HT2B receptors (Homo sapiens, UniProt P41595); test: Human cloned 5-HT2B receptor binding assay; conditions: [3H]LSD (1 nM) displacement, membranes of CHO-K1 cells expressing cloned 5-HT2B receptor; read-out: 5-HT2B pKi (converted)
T1 construct: expressed in transfected cells; host or cells: CHO-K1
T1 sequence (P41595 whole entry): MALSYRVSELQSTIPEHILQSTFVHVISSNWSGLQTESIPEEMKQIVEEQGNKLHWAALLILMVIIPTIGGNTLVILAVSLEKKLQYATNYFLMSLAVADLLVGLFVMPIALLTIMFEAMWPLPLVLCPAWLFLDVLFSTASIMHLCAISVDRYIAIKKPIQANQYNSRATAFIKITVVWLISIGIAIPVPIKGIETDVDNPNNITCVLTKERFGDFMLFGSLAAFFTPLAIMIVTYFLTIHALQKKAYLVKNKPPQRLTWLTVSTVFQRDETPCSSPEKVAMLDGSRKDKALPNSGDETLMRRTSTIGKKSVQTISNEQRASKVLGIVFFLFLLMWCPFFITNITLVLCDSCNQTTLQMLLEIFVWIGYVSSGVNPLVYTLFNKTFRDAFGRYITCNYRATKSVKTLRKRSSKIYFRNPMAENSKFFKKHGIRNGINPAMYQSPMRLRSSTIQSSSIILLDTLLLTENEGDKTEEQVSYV
Procedure, shortened: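 Membranes from CHO-K1 cells expressing cloned receptor incubated 30 min at 37 °C with 1 nM [3H]LSD, 10 μM pargyline and compound (1×10^−10 to 1×10^−4 M) in 50 mM Tris-HCl pH 7.4, 4 mM CaCl2. Nonspecific binding with 100 μM 5-HT; filtration and scintillation counting, IC50 converted to Ki using Kd from saturation binding.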

[2] = biological target: T2, cloned human 5-HT2A receptor (Homo sapiens, UniProt P28223); test: Human 5-HT2A receptor binding assay; conditions: [3H]ketanserin (1 nM) displacement, CHO-K1 cell membranes; read-out: 5-HT2A pKi (converted)
T2 construct: purchased Euroscreen; host or cells: CHO-K1
T2 sequence (P28223 whole entry): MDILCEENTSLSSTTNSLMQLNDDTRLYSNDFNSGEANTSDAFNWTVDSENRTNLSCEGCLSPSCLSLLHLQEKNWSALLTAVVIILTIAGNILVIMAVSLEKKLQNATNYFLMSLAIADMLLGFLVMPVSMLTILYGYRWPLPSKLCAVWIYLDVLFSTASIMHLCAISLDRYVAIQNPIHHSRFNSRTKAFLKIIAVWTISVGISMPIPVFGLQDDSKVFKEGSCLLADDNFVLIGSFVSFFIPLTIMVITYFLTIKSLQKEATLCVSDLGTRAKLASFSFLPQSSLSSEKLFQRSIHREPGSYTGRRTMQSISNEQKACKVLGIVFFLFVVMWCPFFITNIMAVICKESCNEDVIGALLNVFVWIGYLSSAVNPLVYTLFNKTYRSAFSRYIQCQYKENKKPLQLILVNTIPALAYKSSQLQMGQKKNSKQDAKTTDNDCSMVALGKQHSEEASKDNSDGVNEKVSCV
Procedure, shortened: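 Competition binding with 15 μg membranes from CHO-K1 cells expressing cloned human receptor, 1 nM [3H]ketanserin, 10 μM pargyline, 50 mM Tris pH 7.4, compounds 1×10^−10 to 1×10^−4 M; 100 μM mianserin defined nonspecific binding. Incubated 15 min at 37 °C, filtered, counted; IC50 converted to Ki using saturation-derived Kd.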

[3] = biological target: T3, cloned human 5-HT2C receptor (Homo sapiens, UniProt P28335); test: Human 5-HT2C receptor binding assay; conditions: [3H]mesulergine (1 nM) displacement, CHO-K1 cell membranes; read-out: 5-HT2C pKi (converted)
T3 construct: purchased Euroscreen; host or cells: CHO-K1
T3 sequence (P28335 33-458): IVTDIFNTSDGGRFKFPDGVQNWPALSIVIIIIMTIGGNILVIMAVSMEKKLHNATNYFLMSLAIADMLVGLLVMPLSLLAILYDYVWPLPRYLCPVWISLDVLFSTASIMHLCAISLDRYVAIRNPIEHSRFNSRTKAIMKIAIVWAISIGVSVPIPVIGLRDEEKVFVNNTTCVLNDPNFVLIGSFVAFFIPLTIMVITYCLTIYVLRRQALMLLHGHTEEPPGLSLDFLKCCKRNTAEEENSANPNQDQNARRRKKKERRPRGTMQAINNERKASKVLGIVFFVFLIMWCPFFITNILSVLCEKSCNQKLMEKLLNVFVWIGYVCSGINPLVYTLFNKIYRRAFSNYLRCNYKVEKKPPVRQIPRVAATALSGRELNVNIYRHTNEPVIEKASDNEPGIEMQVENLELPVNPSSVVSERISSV
Procedure, shortened: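 CHO-K1 cell membranes expressing the receptor (6 μg) competed against [^3H]mesulergine (1 nM) in 50 mM Tris-HCl pH 7.7, 0.1% ascorbic acid, 10 μM pargyline for 30 min at 37° C; compounds 1×10^−10 to 1×10^−4M. Nonspecific binding with 100 μM mianserin; filtration and scintillation counting. IC50 converted to Ki using saturation-derived Kd.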

[4] = biological target: T1, human cloned 5-HT2B receptors; test: Human cloned 5-HT2B cell-based functional assay; conditions: inhibition of 5-HT response, Fluo-4 AM, CHO.K1 cells expressing cloned 5-HT2B receptor
Experimental: The following describes an in vitro functional assay using human cloned 5-HT2B receptors to determine the ability of compounds to block the receptor. CHO.K1 cells expressing cloned 5-HT2B receptor were maintained In Ultra-CHO medium containing 400 μg/ml of G418, 1000 U/ml penicillin, 100 μg/ml streptomycin, 2.5 μg/ml fungizone, in 95/5% O2/CO2 at 37° C. Ultra-CHO medium additionally supplemented with 1% foetal bovine serum was used when seeding the cells and removed after 5 hours. Cells were plated in Costar 96 well white, clear-bottomed plate at a density of 50,000 cells per well and incubated for at least 24 hours in 95/5% O2/CO2 at 37° C. before running the assay. Media was removed from the wells and 200 μl of 4 μM Fluo-4 AM added, this was incubated in a Wallace Victor 2V workstation at 37° C. for 30 minutes. The Fluo-4 AM was then removed from the wells, which were then washed twice with 200 μl of buffer (HBSS without calcium/magnesium/phenol red, 20 mM HEPES, 1 mM Ca^2+, 1 mM Mg^2+, 2.5 mM probenecid, pH to 7.4), 180 μl of buffer or test compound was added to the well and incubated for 30 minutes. The Victor 2V injectors were used to inject 20 μl of 5-HT after obtaining 10 0.1-second baseline readings at 535 nm, followed by 150 readings. All test compounds were aliquoted in 100% DMSO at 10 mM and diluted to 1 mM in 50% DMSO, subsequent dilutions were made using buffer. Buffer was also used to dilute the 5-HT. Data were analysed using Microsoft Excel and GraphPad Prism, with the latter used to produce sigmoidal dose-response curves for each compound. The compound concentration that inhibited the 5-HT response by 50% was taken (IC50-M), and the results are shown in Table 2, as pIC50, being the negative log (to the base 10) of the measured IC50 values.

Row | Ki [1] | Ki [2] | Ki [3] | SMILES | IC50 [4]
1 | < 100 nM | > 1000 nM | > 1000 nM | COc1ccccc1-c1cccc(-c2oc(N)nc2C)c1 [Compound 219B, 5-(2′-Methoxy-biphenyl-3-yl)-4-methyl-oxazol-2-ylamine, trifluoroacetic acid] | < 1000 nM
2 | < 1000 nM | > 1000 nM | > 1000 nM | COc1ccc(-c2cccc(C)c2)cc1-c1cnc(N)o1 [Compound 224C, 5-(4-Methoxy-3′-methyl-biphenyl-3-yl)-oxazol-2-ylamine, trifluoroacetic acid] | 
3 | < 100 nM | > 3160 nM | > 316 nM | Cc1cc(Nc2cccc(I)c2)nc(N)n1 [Compound 2G, N^4-(3-iodo-phenyl)-6-methyl-pyrimidine-2,4-diamine hydrochloride] | 
4 | < 1000 nM | > 1000 nM | > 1000 nM | Cc1cc(C)cc(-c2cccc(-c3cnc(N)o3)c2)c1 [Compound 209K, 5-(3′,5′-Dimethyl-biphenyl-3-yl)-oxazol-2-ylamine, trifluoroacetic acid] | 
5 | < 1000 nM | > 1000 nM | > 1000 nM | COc1ccc(-c2ccccc2)cc1-c1cnc(N)o1 [Compound 224A, 5-(4-methoxy-biphenyl-3-yl)-oxazol-2-ylamine, trifluoroacetic acid] | 
6 | < 100 nM | > 1000 nM | > 316 nM | Cc1cc(Nc2cc(Br)ccc2Br)nc(N)n1 [Compound 2AJ, N^4-(2,5-dibromo-phenyl)-6-methyl-pyrimidine-2,4-diamine trifluoroacetic acid] | 
7 | < 1000 nM | > 3160 nM | > 1000 nM | Cc1cc(Nc2cccc(Br)c2)nc(N)n1 [Compound 2AF, N^4-(3-bromo-phenyl)-6-methyl-pyrimidine-2,4-diamine trifluoroacetic acid] | 
8 | < 1000 nM | > 10000 nM | > 1000 nM | Cc1cc(Nc2ccc(F)cc2)nc(N)n1 [Compound 2I, N^4-(4-fluoro-phenyl)-6-methyl-pyrimidine-2,4-diamine hydrochloride] | 
9 | < 316 nM | > 1000 nM | > 1000 nM | Cc1nc(N)oc1-c1cccc(-c2ccccc2)c1 [Compound 219A, 5-biphenyl-3-yl-4-methyl-oxazol-2-ylamine, trifluoroacetic acid] | 
10 | < 1000 nM | > 1000 nM | > 1000 nM | COc1ccccc1-c1ccc(Nc2nc(N)n(C)n2)cc1 [Compound 411B, N^3-(2′-methoxy-biphenyl-4-yl)-7-methyl-1H-[1,2,4]triazole-3,5-diamine trifluoroacetic acid] | 
11 | < 1000 nM | > 1000 nM | > 1000 nM | Cc1oc(N)nc1-c1cccc(-c2ccccc2)c1 [Compound 218A, 4-Biphenyl-3-yl-5-methyl-oxazol-2-ylamine, trifluoroacetic acid] | 
12 | < 1000 nM | > 1000 nM | > 1000 nM | Cc1cccc(-c2ccc(Nc3nc(N)n(C)n3)cc2)c1 [Compound 411C, 1-methyl-N^3-(3′-methyl-biphenyl-4-yl)-1H-[1,2,4]triazole-3,5-diamine trifluoroacetic acid] | 

Row | SMILES | Ki [1] | Ki [2] | Ki [3] | IC50 [4]
13 | COc1ccc2ccccc2c1-c1nc(N)[nH]c1C [Compound 104J, 4-(2-Methoxy-naphthalen-1-yl)-5-methyl-1H-imidazol-2-ylamine] | < 100 nM | > 316 nM | > 100 nM | < 100 nM
14 | COc1ccc2ccccc2c1-c1c[nH]c(NC(C)=O)n1 [Compound 103C, N-[4-(2-Methoxy-naphthalen-1-yl)-1H-imidazol-2-yl]-acetamide] | < 100 nM | > 316 nM | > 316 nM | < 100 nM
15 | Cc1cccc(-c2cccc(Nc3nc(N)nn3C)c2)c1 [Compound 406C, 1-methyl-1-(3′-methyl-biphenyl-3-yl)-1H-[1,2,4]triazole-3,5-diamine] | < 100 nM | > 1000 nM | > 1000 nM | < 100 nM
16 | COc1ccc2ccccc2c1-c1c[nH]c(N)n1 [Compound 104C, 4-(2-Methoxy-naphthalen-1-yl)-1H-imidazol-2-ylamine] | < 100 nM | > 1000 nM | > 316 nM | < 1000 nM
17 | Nc1ncc(-c2cccc(-c3cccc(O)c3)c2)o1 [Compound 209C, 3′-(2-Amino-oxazol-5-yl)-biphenyl-3-ol] | < 1000 nM | > 10000 nM | > 10000 nM | 
18 | CCOc1ccc2ccccc2c1-c1c[nH]c(NC(C)=O)n1 [Compound 103A, N-[4-(2-Ethoxy-naphthalen-1-yl)-1H-imidazol-2-yl]-acetamide] | < 100 nM | > 3160 nM | > 1000 nM | 
19 | COc1c(-c2cnc(N)[nH]2)ccc2ccccc12 [Compound 104E, 4-(1-Methoxy-naphthalen-2-yl)-1H-imidazol-2-ylamine] | < 100 nM | > 1000 nM | > 100 nM | 
20 | Cc1cc(Oc2cccc(-c3ccccc3)c2)nc(N)n1 [Compound 4C, 4-(biphenyl-3-yloxy)-6-methylpyrimidin-2-ylamine] | < 1000 nM | > 10000 nM | > 10000 nM | 
21 | Cn1nc(N)nc1Nc1cccc(-c2ccccc2)c1 [Compound 406A, N^5-biphenyl-3-yl-1-methyl-1H-[1,2,4]triazole-3,5-diamine] | < 316 nM | > 1000 nM | > 1000 nM | 
22 | CC(=O)Nc1nc(-c2ccc(F)c3ccccc23)c[nH]1 [Compound 103F, N-[4-(4-Fluoro-naphthalen-1-yl)-1H-imidazol-2-yl]-acetamide] | < 100 nM | > 3160 nM | > 3160 nM | < 100 nM
